Assay type in all cases: functional
The subject of test [1] is Staphylococcus aureus. Put plainly: Antibacterial activity against Staphylococcus aureus KCTC 503 after 24 hrs by broth microdilution method. The following applies: KCTC 503, 24 h.
Test [2] concerns Escherichia coli. Put plainly: Antibacterial activity against Escherichia coli CCARM 1356 after 24 hrs by broth microdilution method. The following applies: CCARM 1356, 24 h.
Test [3] deals with Staphylococcus aureus. Put plainly: Antibacterial activity against methicillin-resistant Staphylococcus aureus CCARM 3167 clinical isolate after 24 hrs by broth microdilution method. Conditions: CCARM 3167, 24 h.
Test [4] has as its system Staphylococcus aureus. Put plainly: Antibacterial activity against Staphylococcus aureus KCTC 209 after 24 hrs by broth microdilution method. Conditions: KCTC 209, 24 h.
In test [5] the test system is Staphylococcus aureus. Kind of test: Ratio of norfloxacin MIC to compound MIC for methicillin-resistant Staphylococcus aureus CCARM 3167 clinical isolate.
The test system of test [6] is Staphylococcus aureus. Kind of test: Ratio of norfloxacin MIC to compound MIC for quinolone-resistant Staphylococcus aureus CCARM 3505 clinical isolate.
The subject of test [7] is Staphylococcus aureus. Put plainly: Ratio of norfloxacin MIC to compound MIC for quinolone-resistant Staphylococcus aureus CCARM 3519 clinical isolate.
In test [8] the test system is Staphylococcus aureus. Kind of test: Antibacterial activity against quinolone-resistant Staphylococcus aureus CCARM 3505 clinical isolate after 24 hrs by broth microdilution method. The following applies: CCARM 3505, 24 h.
For test [9], the system named is Staphylococcus aureus. Put plainly: Ratio of norfloxacin MIC to compound MIC for methicillin-resistant Staphylococcus aureus CCARM 3506 clinical isolate.
The test system of test [10] is Staphylococcus aureus. Put plainly: Antibacterial activity against quinolone-resistant Staphylococcus aureus CCARM 3519 clinical isolate after 24 hrs by broth microdilution method. The following applies: CCARM 3519, 24 h.
The test system of test [11] is Staphylococcus aureus. Kind of test: Antibacterial activity against methicillin-resistant Staphylococcus aureus CCARM 3506 clinical isolate after 24 hrs by broth microdilution method. Conditions: CCARM 3506, 24 h.
In test [12] the test system is Staphylococcus aureus. Put plainly: Antibacterial activity against Staphylococcus aureus RN4220 after 24 hrs by broth microdilution method. Conditions: RN4220, 24 h.

Data on seven compounds can be found in ChEMBL document CHEMBL2086385, “Synthesis and antimicrobial evaluation of L-phenylalanine-derived C5-substituted rhodanine and chalcone derivatives containing thiobarbituric acid or 2-thioxo-4-thiazolidinone” (2012).

≈ marks a conversion by molar mass, not a printed value. Where only a bound is given, the exact number is not on record here.

On to `O=C(O)[C@H](Cc1ccccc1)N1C(=O)/C(=C\c2ccc(OCc3cccc(Cl)c3)cc2)SC1=S`, for which the MIC in test [1] was 8 µg/mL (≈ 15.7 µM); in [2] it was above 64 µg/mL; in test [3], 4 µg/mL (≈ 7.84 µM); in [4], 8 µg/mL (≈ 15.7 µM); in [8], 4 µg/mL (≈ 7.84 µM); in [10], 4 µg/mL (≈ 7.84 µM). Further, the MIC in test [11] came out at 4 µg/mL (≈ 7.84 µM); in [12], 2 µg/mL (≈ 3.92 µM). Also, the Ratio in [5], in test [6], in test [7] and in [9] was 2 each time.
In the case of `O=C(O)[C@H](Cc1ccccc1)N1C(=O)/C(=C\c2ccc(OCc3ccc(Cl)cc3)cc2)SC1=S`, the MIC in test [1] was 8 µg/mL (≈ 15.7 µM); in test [2], above 64 µg/mL; in test [3] it was 4 µg/mL (≈ 7.84 µM); in test [4], 8 µg/mL (≈ 15.7 µM); in [8], 4 µg/mL (≈ 7.84 µM); in test [10] it was 4 µg/mL (≈ 7.84 µM). Moreover, the figures for the MIC in test [11] and in test [12] were 4 µg/mL (≈ 7.84 µM) and 2 µg/mL (≈ 3.92 µM), respectively. In addition, the Ratio in [5], in test [6], in test [7] and in test [9] was 2 throughout.
With `O=C(O)[C@H](Cc1ccccc1)N1C(=O)/C(=C\c2ccc(OCc3ccc(Cl)cc3Cl)cc2)SC1=S`, the MIC in test [1] is 8 µg/mL (≈ 14.7 µM); in [2] it was above 64 µg/mL; in [3], 8 µg/mL (≈ 14.7 µM); in test [4] it was 8 µg/mL (≈ 14.7 µM); in test [8], 8 µg/mL (≈ 14.7 µM); in [10], 8 µg/mL (≈ 14.7 µM). For the same compound, the minimal inhibitory concentration (MIC) came out at 16 µg/mL (≈ 29.4 µM) in test [11] and 2 µg/mL (≈ 3.67 µM) in test [12]. Besides, the Ratio in test [5], in test [6], in test [7] and in test [9] was 2 each time.
On to `O=C(O)[C@H](Cc1ccccc1)N1C(=O)/C(=C\c2ccc(OCc3cccc(Br)c3)cc2)SC1=S`, for which the MIC in test [1] was 4 µg/mL (≈ 7.21 µM); in test [2], above 64 µg/mL; in test [3], 4 µg/mL (≈ 7.21 µM); in test [4] it was 4 µg/mL (≈ 7.21 µM); in test [8] it was 4 µg/mL (≈ 7.21 µM); in test [10] it was 8 µg/mL (≈ 14.4 µM). The MIC in test [11] was found to be 4 µg/mL (≈ 7.21 µM); in test [12] it was 2 µg/mL (≈ 3.61 µM). For the same compound, the Ratio in test [5], in test [6], in [7] and in [9] was 2 throughout.
Turning to `O=C(O)[C@H](Cc1ccccc1)N1C(=O)/C(=C\c2ccc(OCc3ccc(Br)cc3)cc2)SC1=S`, the minimal inhibitory concentration (MIC) in [1] was 8 µg/mL (≈ 14.4 µM); in [2], above 64 µg/mL; in test [3], 4 µg/mL (≈ 7.21 µM); in test [4] it was 8 µg/mL (≈ 14.4 µM); in test [8] it was 8 µg/mL (≈ 14.4 µM); in [10], 8 µg/mL (≈ 14.4 µM). Also, the MIC in test [11] stood at 8 µg/mL (≈ 14.4 µM); in [12] it was 2 µg/mL (≈ 3.61 µM). For the same compound, the Ratio in [5], in test [6], in test [7] and in test [9] was 2 each time.
Consider `Cc1ccc(COc2ccc(/C=C3\SC(=S)N([C@@H](Cc4ccccc4)C(=O)O)C3=O)cc2)cc1`, for which the MIC was 16 µg/mL (≈ 32.7 µM) in test [1]; above 64 µg/mL in test [2]; 4 µg/mL (≈ 8.17 µM) in [3]; 8 µg/mL (≈ 16.3 µM) in test [4]; 8 µg/mL (≈ 16.3 µM) in test [8]; 8 µg/mL (≈ 16.3 µM) in test [10]. Moreover, the minimal inhibitory concentration (MIC) stood at 8 µg/mL (≈ 16.3 µM) in test [11] and 4 µg/mL (≈ 8.17 µM) in test [12]. For the same compound, the Ratio in [5], in test [6], in test [7] and in [9] was 2 in each case.
Regarding `O=C(O)[C@H](Cc1ccccc1)N1C(=O)/C(=C\c2ccc(OCc3ccccc3)cc2)SC1=S`, the minimal inhibitory concentration (MIC) in test [1] is 8 µg/mL (≈ 16.8 µM); in test [2] it was above 64 µg/mL; in test [3], 4 µg/mL (≈ 8.41 µM); in test [4], 8 µg/mL (≈ 16.8 µM); in test [8], 4 µg/mL (≈ 8.41 µM); in test [10], 8 µg/mL (≈ 16.8 µM). The MIC is 8 µg/mL (≈ 16.8 µM) in [11] and 2 µg/mL (≈ 4.21 µM) in test [12]. Further, the Ratio in test [5], in [6], in [7] and in [9] was 2 each time.
